Among the data in patent publication US10774086B2, “GSK-3 inhibitors” (BRISTOL-MYERS SQUIBB COMPANY, priority 2016, dated 2020) are IC50 values, retold here.

The target in experiment [1] is GSK3β (Homo sapiens (Human), UniProt P49841). In words: GSK3β kinase assay (Caliper LabChip, fluoresceinated peptide substrate). Type of experiment: biochemical. Conditions: 250 pM enzyme, 20 uM ATP, 1.5 uM peptide, 20 hours room temperature; read-out: GSK3β IC50 (first value of GSK3β/GSK3α).
Description: The kinase assay was performed in V-bottom 384-well plates. […] The reaction was incubated at room temperature for 20 hours and terminated by adding 45 μl of 35 mM EDTA to each sample. The reaction mixture was analyzed on the Caliper LabChip3000 (Caliper, Hopkinton, Mass.) by electrophoretic separation of the unphosphorylated substrate and phosphorylated product. […] Compounds were dissolved at 10 mM in dimethylsulfoxide (DMSO) and evaluated at eleven concentrations. IC50 values were derived by non-linear regression analysis.
The test system of experiment [2] is pTau. In words: pTau assay. Type of experiment: cell-based.
Experiment [3] deals with GSK3α (Homo sapiens (Human), UniProt P49840). The experiment can be described thus: GSK3α kinase assay (Caliper LabChip, fluoresceinated peptide substrate). Format: biochemical. Conditions: 250 pM enzyme, 20 uM ATP, 1.5 uM peptide, 20 hours room temperature; read-out: GSK3α IC50 (second value of GSK3β/GSK3α). From the text:
IC50 values were derived by non-linear regression analysis.

GSK3β, sequence (P49841 whole entry, species assumed): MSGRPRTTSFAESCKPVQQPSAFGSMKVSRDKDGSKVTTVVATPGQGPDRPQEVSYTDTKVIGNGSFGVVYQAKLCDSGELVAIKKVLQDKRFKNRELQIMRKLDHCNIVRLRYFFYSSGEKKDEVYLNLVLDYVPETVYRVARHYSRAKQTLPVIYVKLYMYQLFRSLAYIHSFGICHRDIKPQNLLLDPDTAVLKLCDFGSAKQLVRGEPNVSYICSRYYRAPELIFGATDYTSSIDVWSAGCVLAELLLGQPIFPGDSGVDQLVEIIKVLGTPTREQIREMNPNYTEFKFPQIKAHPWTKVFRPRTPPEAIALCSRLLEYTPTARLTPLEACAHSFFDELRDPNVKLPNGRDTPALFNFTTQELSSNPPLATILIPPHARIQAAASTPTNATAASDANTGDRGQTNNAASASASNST
GSK3α, sequence (P49840 whole entry, species assumed): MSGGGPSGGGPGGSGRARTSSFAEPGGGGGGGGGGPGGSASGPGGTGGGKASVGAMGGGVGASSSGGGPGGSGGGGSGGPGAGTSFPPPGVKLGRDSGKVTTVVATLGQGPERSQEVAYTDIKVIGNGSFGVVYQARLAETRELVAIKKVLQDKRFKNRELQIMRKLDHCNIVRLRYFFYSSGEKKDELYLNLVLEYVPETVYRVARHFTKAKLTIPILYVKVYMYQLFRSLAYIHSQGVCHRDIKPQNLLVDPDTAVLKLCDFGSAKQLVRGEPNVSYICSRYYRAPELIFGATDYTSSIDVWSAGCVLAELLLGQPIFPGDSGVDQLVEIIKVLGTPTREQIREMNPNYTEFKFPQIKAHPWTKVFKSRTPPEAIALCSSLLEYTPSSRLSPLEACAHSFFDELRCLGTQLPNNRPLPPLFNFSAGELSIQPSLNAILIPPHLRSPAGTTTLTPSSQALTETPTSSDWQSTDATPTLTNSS

In the case of `CC1CN(c2ccncc2NC(=O)c2ccnn3cc(-c4ccccc4)nc23)CCO1` (racemic) [Example 14, N-(4-(2-Methylmorpholino)pyridin-3-yl)-2-phenylimidazo[1,2-b]pyridazine-8-carboxamide], the IC50 in experiment [1] was 0.75 nM; in experiment [2], 58 nM; in experiment [3], 0.4 nM.
Turning to `N#CC1CCN(c2ccncc2NC(=O)c2ccnn3cc(-c4ccccc4)nc23)CC1` [Example 10, N-(4-(4-Cyanopiperidin-1-yl)pyridin-3-yl)-2-phenylimidazo[1,2-b]pyridazine-8-carboxamide], the IC50 was determined as 0.2 nM in experiment [1] and 0.1 nM in experiment [3].
`CC1CN(c2ccncc2NC(=O)c2ccnn3cc(C4=CCCCC4)nc23)CCO1` (centres unmarked) [Example 35, 2-(Cyclohex-1-en-1-yl)-N-(4-(2-methylmorpholino)pyridin-3-yl)imidazo[1,2-b]pyridazine-8-carboxamide]: the IC50 in experiment [1] stood at 1.6 nM; in experiment [2], 160 nM; in experiment [3], 1 nM.
In the same order, the values of `CC1CN(c2ccncc2NC(=O)c2ccnn3cc(C4CC4)nc23)CCO1` (centres unmarked) [Example 32, 2-Cyclopropyl-N-(4-(2-methylmorpholino)pyridin-3-yl)imidazo[1,2-b]pyridazine-8-carboxamide] are 2.6 nM, 60 nM and 0.8 nM.
As for `O=C(Nc1cccnc1)c1ccnn2c(NCC3CC3)cnc12` [Example 39, 3-((Cyclopropylmethyl)amino)-N-(pyridin-3-yl)imidazo[1,2-b]pyridazine-8-carboxamide], the IC50 in experiment [1] is 220 nM; in experiment [2] it was greater than 10000 nM; in experiment [3] it was 900 nM.
As for `CC(C)Oc1ccncc1NC(=O)c1ccnn2c(NCC3CC3)cnc12` [Example 41, 3-((Cyclopropylmethyl)amino)-N-(4-isopropoxypyridin-3-yl)imidazo[1,2-b]pyridazine-8-carboxamide], the IC50 came to 6.6 nM in experiment [1], 290 nM in experiment [2] and 3.4 nM in experiment [3].
On to `O=C(Nc1cnccc1N1CCC(F)CC1)c1ccnn2cc(-c3ccccc3)nc12` [Example 11, N-(4-(4-Fluoropiperidin-1-yl)pyridin-3-yl)-2-phenylimidazo[1,2-b]pyridazine-8-carboxamide], for which the IC50 in experiment [1] came to 0.3 nM; in experiment [2], 24 nM; in experiment [3] it was 0.2 nM.
Regarding `Cc1ccncc1NC(=O)c1ccnn2cc(-c3ccccc3)nc12` [Example 2, N-(4-Methylpyridin-3-yl)-2-phenylimidazo[1,2-b]pyridazine-8-carboxamide], the IC50 in experiment [1] stood at 3.5 nM; in experiment [2], 250 nM; in experiment [3] it was 0.8 nM.
In the same order, the values of `O=C(Nc1cnccc1OCC(F)(F)F)c1ccnn2cc(-c3ccccc3)nc12` [Example 4, 2-Phenyl-N-(4-(2,2,2-trifluoroethoxy)pyridin-3-yl)imidazo[1,2-b]pyridazine-8-carboxamide] are 0.3 nM, 22 nM and 0.1 nM.
In the same order, the values of `CC1CN(c2ccncc2NC(=O)c2ccnn3cc(-c4ccc(C(F)(F)F)cc4)nc23)CCO1` (centres unmarked) [Example 26, N-(4-(2-Methylmorpholino)pyridin-3-yl)-2-(4-(trifluoromethyl)phenyl)imidazo[1,2-b]pyridazine-8-carboxamide] are 1.4 nM, 120 nM and 0.6 nM.
`O=C(Nc1cnccc1N1CCCCC1)c1ccnn2ccnc12` [Example 27, N-(4-(Piperidin-1-yl)pyridin-3-yl)imidazo[1,2-b]pyridazine-8-carboxamide]: the IC50 is 19.8 nM in experiment [1], 760 nM in experiment [2] and 11.4 nM in experiment [3].
As for `CC1CN(c2cc(F)ncc2NC(=O)c2ccnn3cc(-c4ccccc4)nc23)CCO1` (centres unmarked) [Example 21, N-(6-fluoro-4-(2-methylmorpholino)pyridin-3-yl)-2-phenylimidazo[1,2-b]pyridazine-8-carboxamide], the figures for the IC50 in experiment [1], in experiment [2] and in experiment [3] were 0.6 nM, 140 nM and 0.2 nM, respectively.
As to `CC(C)Oc1ccncc1NC(=O)c1ccnn2cc(-c3ccccc3)nc12` [Example 3, N-(4-Isopropoxypyridin-3-yl)-2-phenylimidazo[1,2-b]pyridazine-8-carboxamide], the figures for the IC50 in experiment [1], in experiment [2] and in experiment [3] were 0.7 nM, 83 nM and 0.4 nM, respectively.
Consider `CC1CN(c2ccncc2NC(=O)c2ccnn3cc(-c4ccccc4)nc23)CCO1` (single isomer, unassigned) [Example 16, N-(4-(2-Methylmorpholino)pyridin-3-yl)-2-phenylimidazo[1,2-b]pyridazine-8-carboxamide], for which the values for the IC50 in experiment [1], in experiment [2] and in experiment [3] were 0.8 nM, 86 nM and 0.3 nM, respectively.
`O=C(Nc1cnccc1N1CCC(F)(F)CC1)c1ccnn2c(NCC3CC3)cnc12` [Example 43, 3-((Cyclopropylmethyl)amino)-N-(4-(4,4-difluoropiperidin-1-yl)pyridin-3-yl)imidazo[1,2-b]pyridazine-8-carboxamide]: the IC50 amounted to 1.1 nM in experiment [1], 41 nM in experiment [2] and 2 nM in experiment [3].
`O=C(Nc1cnccc1N1CCCCC1)c1ccnn2cc(-c3ccccc3)nc12` [Example 9, 2-Phenyl-N-(4-(piperidin-1-yl)pyridin-3-yl)imidazo[1,2-b]pyridazine-8-carboxamide]: the IC50 in experiment [1] turned out to be 1.1 nM; in experiment [3], 0.2 nM.
As to `O=C(Nc1cnccc1-c1ccccc1)c1ccnn2cc(-c3ccccc3)nc12` [Example 6, 2-Phenyl-N-(4-phenylpyridin-3-yl)imidazo[1,2-b]pyridazine-8-carboxamide], the IC50 in experiment [1] is 3.6 nM; in experiment [2] it was 900 nM; in experiment [3], 1.1 nM.
As for `COc1ccccc1-c1cn2nccc(C(=O)Nc3cnccc3N3CCC(F)(F)CC3)c2n1` [Example 23, N-(4-(4,4-Difluoropiperidin-1-yl)pyridin-3-yl)-2-(2-methoxyphenyl)imidazo[1,2-b]pyridazine-8-carboxamide], the figures for the IC50 in experiment [1], in experiment [2] and in experiment [3] were 0.8 nM, 110 nM and 0.6 nM, respectively.
`CC1CN(c2ccncc2NC(=O)c2ccnn3cc(-c4ccccc4)nc23)CCO1` (single isomer, unassigned) [Example 15, N-(4-(2-Methylmorpholino)pyridin-3-yl)-2-phenylimidazo[1,2-b]pyridazine-8-carboxamide]: the IC50 in experiment [1] worked out at 0.2 nM; in experiment [2] it was 9.2 nM; in experiment [3], 0.09 nM.
In the same order, the values of `O=C(Nc1cnccc1N1CCC(F)(F)CC1)c1ccnn2cc(C3CC3)nc12` [Example 31, 2-Cyclopropyl-N-(4-(4,4-difluoropiperidin-1-yl)pyridin-3-yl)imidazo[1,2-b]pyridazine-8-carboxamide] are 0.4 nM, 120 nM and 0.2 nM.
On to `COc1ccccc1-c1cn2nccc(C(=O)Nc3cnccc3N3CCOC(C)C3)c2n1` (centres unmarked) [Example 24, 2-(2-Methoxyphenyl)-N-(4-(2-methylmorpholino)pyridin-3-yl)imidazo[1,2-b]pyridazine-8-carboxamide], for which the IC50 worked out at 0.6 nM in experiment [1], 79 nM in experiment [2] and 0.4 nM in experiment [3].
Take `O=C(Nc1cnccc1-c1ccc(F)cc1)c1ccnn2cc(C3=CCCCC3)nc12` [Example 33, 2-(Cyclohex-1-en-1-yl)-N-(4-(4-fluorophenyl)pyridin-3-yl)imidazo[1,2-b]pyridazine-8-carboxamide]: the IC50 in experiment [1] came to 6.1 nM; in experiment [2], 820 nM; in experiment [3], 1.2 nM.
Regarding `O=C(Nc1cnccc1N1CCC(F)(F)CC1)c1ccnn2cc(-c3ccccc3)nc12` [Example 12, N-(4-(4,4-Difluoropiperidin-1-yl)pyridin-3-yl)-2-phenylimidazo[1,2-b]pyridazine-8-carboxamide], the IC50 in experiment [1] is 0.4 nM; in experiment [2] it was 30 nM; in experiment [3], 0.2 nM.
With `CS(=O)(=O)c1ccncc1NC(=O)c1ccnn2cc(-c3ccccc3)nc12` [Example 5, N-(4-(Methylsulfonyl)pyridin-3-yl)-2-phenylimidazo[1,2-b]pyridazine-8-carboxamide], the results for the IC50 in experiment [1], in experiment [2] and in experiment [3] were 1.5 nM, 120 nM and 0.4 nM, respectively.
Turning to `C[C@@H]1COCCN1c1ccncc1NC(=O)c1ccnn2cc(-c3ccccc3)nc12` [Example 17, (R)—N-(4-(3-Methylmorpholino)pyridin-3-yl)-2-phenylimidazo[1,2-b]pyridazine-8-carboxamide], the IC50 in experiment [1] turned out to be 3.4 nM; in experiment [2] it was 180 nM; in experiment [3], 1 nM.
Regarding `O=C(Nc1cccnc1)c1ccnn2cc(-c3ccccc3)nc12` [Example 1, 2-Phenyl-N-(pyridin-3-yl)imidazo[1,2-b]pyridazine-8-carboxamide], the IC50 in experiment [2] stood at 660 nM.
Take `O=C(Nc1cnccc1N1CCOCC1)c1ccnn2cc(-c3cccnc3)nc12` [Example 36, N-(4-Morpholinopyridin-3-yl)-2-(pyridin-3-yl)imidazo[1,2-b]pyridazine-8-carboxamide]: the IC50 in experiment [1] came out at 1.3 nM; in experiment [3], 0.4 nM.
Regarding `COc1cncc(NC(=O)c2ccnn3cc(-c4ccccc4)nc23)c1` [Example 19, N-(5-Methoxypyridin-3-yl)-2-phenylimidazo[1,2-b]pyridazine-8-carboxamide], the IC50 in experiment [1] stood at 37 nM; in experiment [2] it was 3200 nM.
Turning to `O=C(Nc1cnccc1-c1ccc(F)cc1)c1ccnn2cc(-c3ccccc3)nc12` [Example 7, N-(4-(4-Fluorophenyl)pyridin-3-yl)-2-phenylimidazo[1,2-b]pyridazine-8-carboxamide], the IC50 in experiment [1] came to 1.6 nM; in experiment [3], 0.6 nM.
